Assay results as given in BindingDB's records for doi:10.1016/j.bmcl.2018.10.050 (Vanderbilt University, 2019).

Test: Inhibition of CYP1A2 (unknown origin)

IC50 [µM] | SMILES
< 500 | FC(F)(F)c1nccc2cc(Nc3n[nH]c4nccnc34)ccc12 [N-(1H-pyrazolo[3,4-b]pyrazin-3-yl)-1-(trifluoromethyl) isoquinolin-6-amine]
< 500 | FC(F)(F)c1nccc2cc(Nc3n[nH]c4cccnc34)ccc12 [N-(1H-pyrazolo[4,3-b]pyridin-3-yl)-1-(trifluoromethyl) isoquinolin-6-amine]
